Seven test systems from the supplement of paper PMC6045584 can be followed below.

Compound in experiment [1]: CNCc1ccc(-c2[nH]c3cc(F)cc4c3c2CCNC4=O)cc1
Nature of the experiment: surviving fraction relative to DMSO-only wells; higher = less growth inhibition. As to conditions: exposure time: 5 days. A digest of the protocol:
(§1)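 Surviving fraction was calculated by normalising CellTiter-Glo luminescence to the median of DMSO-only wells. Tumour cell lines in log phase were seeded in 384-well plates at 250–500 cells per well, and 24 hours later were exposed continuously for five days to inhibitors at 0.5, 1, 5, 10, 50, 100, 500 and 1000 nM.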

Compound in experiment [2]: O=C(c1cc(Cc2n[nH]c(=O)c3ccccc23)ccc1F)N1CCN(C(=O)C2CC2)CC1 [OLAPARIB]
Described as above. To be noted: exposure time: 5 days. A digest of the protocol:
as §1

± gives the standard deviation of the averaged measurements.

In the case of HS578T BREAST, the surviving fraction was determined as 0.959 ± 0.13 in experiment [1] (0.5 nM); 0.875 ± 0.042 in experiment [1] (1 nM); 0.912 ± 0.11 in experiment [1] (5 nM); 0.927 ± 0.17 in experiment [1] (10 nM); 0.892 ± 0.062 in experiment [1] (50 nM); 0.937 ± 0.067 in experiment [1] (100 nM). In addition, the surviving fraction in experiment [1] (500 nM) amounted to 0.763 ± 0.059; in experiment [1] (1000 nM) it was 0.801 ± 0.13; in experiment [2] (0.5 nM) it was 0.886 ± 0.076; in experiment [2] (1 nM) it was 0.911 ± 0.043; in experiment [2] (5 nM), 0.937 ± 0.14; in experiment [2] (10 nM), 0.853 ± 0.12. Besides, the surviving fraction in experiment [2] (50 nM) turned out to be 0.837 ± 0.079; in experiment [2] (100 nM) it was 0.87 ± 0.061; in experiment [2] (500 nM) it was 0.713 ± 0.093; in experiment [2] (1000 nM), 0.705 ± 0.066.
Regarding HS57T BREAST, the surviving fraction in experiment [1] (0.5 nM) was 0.972 ± 0.021; in experiment [1] (1 nM), 0.994 ± 0.063; in experiment [1] (5 nM), 1.03 ± 0.09; in experiment [1] (10 nM), 0.979 ± 0.055; in experiment [1] (50 nM), 0.929 ± 0.077; in experiment [1] (100 nM) it was 0.971 ± 0.06. In addition, the surviving fraction in experiment [1] (500 nM) worked out at 0.881 ± 0.03; in experiment [1] (1000 nM) it was 0.865 ± 0.038; in experiment [2] (0.5 nM) it was 1.09 ± 0.06; in experiment [2] (1 nM) it was 1.11 ± 0.036; in experiment [2] (5 nM), 1.09 ± 0.05; in experiment [2] (10 nM), 1.13 ± 0.05. In addition, the surviving fraction in experiment [2] (50 nM) was 1.1 ± 0.022; in experiment [2] (100 nM), 1.04 ± 0.053; in experiment [2] (500 nM), 0.999 ± 0.024; in experiment [2] (1000 nM), 0.914 ± 0.067.
Regarding HMT3552 BREAST, the surviving fraction is 0.99 ± 0.063 in experiment [1] (0.5 nM); 0.968 ± 0.043 in experiment [1] (1 nM); 0.95 ± 0.031 in experiment [1] (5 nM); 1 ± 0.0095 in experiment [1] (10 nM); 0.817 ± 0.037 in experiment [1] (50 nM); 0.84 ± 0.022 in experiment [1] (100 nM). Besides, the surviving fraction in experiment [1] (500 nM) was found to be 0.78 ± 0.042; in experiment [1] (1000 nM), 0.723 ± 0.079; in experiment [2] (0.5 nM), 0.96; in experiment [2] (1 nM), 0.909; in experiment [2] (5 nM), 0.92; in experiment [2] (10 nM) it was 0.865. The surviving fraction in experiment [2] (50 nM) was 1.07; in experiment [2] (100 nM) it was 0.858; in experiment [2] (500 nM), 0.913; in experiment [2] (1000 nM), 0.742.
For the test system HCC70 BREAST, the surviving fraction in experiment [1] (0.5 nM) came out at 1.07 ± 0.061; in experiment [1] (1 nM) it was 1.12 ± 0.037; in experiment [1] (5 nM), 1.16 ± 0.098; in experiment [1] (10 nM), 1.1 ± 0.11; in experiment [1] (50 nM) it was 1.12 ± 0.12; in experiment [1] (100 nM) it was 1.11 ± 0.017. Further, the surviving fraction was determined as 1.12 ± 0.11 in experiment [1] (500 nM); 1.12 ± 0.052 in experiment [1] (1000 nM); 1.15 ± 0.043 in experiment [2] (0.5 nM); 1.08 ± 0.038 in experiment [2] (1 nM); 1.13 ± 0.082 in experiment [2] (5 nM); 1.15 ± 0.049 in experiment [2] (10 nM). In addition, the surviving fraction amounted to 1.1 ± 0.16 in experiment [2] (50 nM), 1.05 ± 0.064 in experiment [2] (100 nM), 0.983 ± 0.069 in experiment [2] (500 nM) and 0.928 ± 0.12 in experiment [2] (1000 nM).
For the test system HCC38 BREAST, the surviving fraction in experiment [1] (0.5 nM) is 0.703 ± 0.16; in experiment [1] (1 nM), 0.805 ± 0.24; in experiment [1] (5 nM) it was 0.971 ± 0.31; in experiment [1] (10 nM), 0.705 ± 0.14; in experiment [1] (50 nM) it was 0.528 ± 0.1; in experiment [1] (100 nM) it was 0.607 ± 0.047. Also, the surviving fraction in experiment [1] (500 nM) worked out at 0.492 ± 0.22; in experiment [1] (1000 nM) it was 0.45 ± 0.035; in experiment [2] (0.5 nM) it was 1.13 ± 0.12; in experiment [2] (1 nM), 1.04 ± 0.039; in experiment [2] (5 nM), 1.05 ± 0.26; in experiment [2] (10 nM), 1.05 ± 0.22. The surviving fraction in experiment [2] (50 nM) was found to be 0.656 ± 0.17; in experiment [2] (100 nM) it was 0.6 ± 0.094; in experiment [2] (500 nM) it was 0.441 ± 0.098; in experiment [2] (1000 nM), 0.432 ± 0.074.
On to G292 BONE, for which the surviving fraction worked out at 0.998 ± 0.075 in experiment [1] (0.5 nM); 0.981 ± 0.037 in experiment [1] (1 nM); 1.05 ± 0.053 in experiment [1] (5 nM); 0.975 ± 0.012 in experiment [1] (10 nM); 0.9877 ± 0.0081 in experiment [1] (50 nM); 0.932 ± 0.021 in experiment [1] (100 nM). The surviving fraction in experiment [1] (500 nM) was 0.8 ± 0.044; in experiment [1] (1000 nM), 0.775 ± 0.035; in experiment [2] (0.5 nM), 1.01 ± 0.014; in experiment [2] (1 nM) it was 1.01 ± 0.037; in experiment [2] (5 nM) it was 1.01 ± 0.016; in experiment [2] (10 nM) it was 1.02 ± 0.017. For the same test system, the surviving fraction was 0.977 ± 0.022 in experiment [2] (50 nM), 0.971 ± 0.046 in experiment [2] (100 nM), 0.872 ± 0.037 in experiment [2] (500 nM) and 0.831 ± 0.02 in experiment [2] (1000 nM).
Regarding HMLE3 BREAST, the surviving fraction in experiment [1] (0.5 nM) came to 1.13 ± 0.039; in experiment [1] (1 nM), 1 ± 0.042; in experiment [1] (5 nM), 1.11 ± 0.051; in experiment [1] (10 nM), 1.07 ± 0.051; in experiment [1] (50 nM) it was 0.986 ± 0.17; in experiment [1] (100 nM), 1.03 ± 0.082. Also, the surviving fraction in experiment [1] (500 nM) is 0.856 ± 0.14; in experiment [1] (1000 nM), 0.879 ± 0.056; in experiment [2] (0.5 nM), 1.01 ± 0.015; in experiment [2] (1 nM), 0.976 ± 0.039; in experiment [2] (5 nM) it was 1.09 ± 0.097; in experiment [2] (10 nM), 1.06 ± 0.057. In addition, the surviving fraction in experiment [2] (50 nM) turned out to be 0.972 ± 0.042; in experiment [2] (100 nM), 0.962 ± 0.12; in experiment [2] (500 nM), 0.911 ± 0.07; in experiment [2] (1000 nM), 0.835 ± 0.072.
